Converted amounts (≈) assume the structure as drawn. Read-outs that look alike come from different tables or passages of the source.
Legend:
HBeAg = assay type: cell-based, hepatitis B virus
HBsAg = assay type: cell-based, hepatitis B virus
HIV-1 III B = assay: Inhibition of HIV-induced MT4 cell pathological effects (CPE); assay type: cell-based; settings: for IC50: 50 percent effective concentration, CPE in MT4 cells, 72 hours
Protocol: HIV-1 III B comes from the USA; MT4 cell line comes from Japan.
To determine viral toxicity, HIV are diluted 10 fold in 8 serial [Chinese version is unclear, and this is an educated guess] and MT4 cell pathological effects are then observed in the culture solution of RPMI-1640. Calculated TCID50 is 10-6. The normal cell control group and virus control group are also performed. The samples with five concentrations per group that are diluted by 2 times and 100 μl AZT are added in cell or virus cultures. All concentrations of samples are performed in three repeated wells. The experiments are maintained at 37° C., 5 percent CO2 for 72 hours. Then the cell pathological effects (CPE) are observed under an inverted microscope. IC50 and selective index SI (TC50/IC50) are calculated in Table 7.

MT4 cells = assay: Toxicity of compounds on MT4 cells (MTT method); assay type: cell-based; settings: 6 days
Protocol: MT4 cells are cultured in 96-well plates (2×10^5 cells/ml, 0.1 ml/well) and the verifying compounds are added and compared against the positive control sample AZT, and the normal cell control group at the same time. Comparisons against DMSO control group and MT4 cell control group are also performed. The culture is maintained at 37° C., 5 percent CO2 for 6 days. The cell activities are tested by the MTT method to determine TC50.

influenza A1 virus = assay: Anti-influenza virus experiment in MDCK cells; assay type: cell-based; settings: for IC50: 72 h, MDCK cells, 3 days
[1] = test system: liver fibrosis induced by carbon tetrachloride; assay: Model of liver fibrosis induced by carbon tetrachloride in rats; assay type: in vivo, Wistar male rats; settings: chronic carbon tetrachloride 12 weeks, treated one time a day for 8 weeks, X ± SD, n = 20
Protocol: 4. The Model of Liver Fibrosis Induced by Carbon Tetrachloride in Rats
Wistar male rats, weighing 100-150 g are used in the study. Animals are housed in an animal room with a 12 h: 12 h photoperiod and at 22° C. Animals are maintained with free access to standard rodent pellet food and water ad libitum
All Wistar male rats are treated with 0.3 ml/(100 g body weight) of 40 percent carbon tetrachloride (dissolved in peanut oil) by hypodermic injection twice a week for 12 weeks to induce […] hepatic fibrosis model, all in phase IV. Then all rats in hepatic fibrosis are randomly divided into the following groups: normal saline (NS) group, sample group and positive contrast group. The NS group rats are treated with 0.2 ml normal saline by intramuscular injection for 8 weeks, and simultaneously, all the other groups are treated with samples one time a day for 8 weeks. […] After that, all rats are killed, and the right lobes of the livers are fixed in neutral formaldehyde solution for histological examination.

[2] = test system: hepatic toxicity induced by D-galactosamine; assay: Model of hepatic toxicity induced by D-galactosamine in rats; assay type: in vivo; settings: D-galactosamine 800 mg/kg i.p. (Table 4), X ± SD, n = 20
Protocol: 3. The Model of Hepatic Toxicity Induced by D-Galactosamine in Rats […] Animals are maintained with free access to standard rodent pellet food and water ad libitum. All rats are randomly divided into 4 groups. All groups except the control group are treated simultaneously with 800 mg/kg of 50 percent D-galactosamine by intraperitoneal injection to induce acute hepatic toxicity model. The blood samples are obtained 12 hours after the final dose for determining SGPT and TBIL. The animals are killed to measure their liver weight and to perform a pathological examination (Table 4).

cell Hep G2 2.2.15 = assay: Toxicity to cell Hep G2 2.2.15 (MTT method); assay type: cell-based, human
[3] = test system: arrhythmia induced by aconitine; assay: Arrhythmia induced by aconitine in rats; assay type: in vivo, Wistar rats; settings: for preventive effects on arrhythmia induced by aconitine (in words): intravenously injected, aconitine dosage increased, VT/VF postponed
Protocol: The antagonistic effects of the dehydrocavidine species compounds on arrhythmia induced by aconitine
The samples are dissolved in hot normal saline up to the needed concentration. Normal saline serves as the control solution. Propafenone serves as a positive control sample.
Wistar rats of both sexes are randomly grouped and anesthetized by urethane (1.2 g/kg), II lead electrocardiogram is recorded. The groups are administered the following drugs by vena femoralis injection: (1) the compound (5 mg/kg, if possible 2.5 mg/kg), (2) propafenone (7 mg/kg), (3) control solution (2 mg/kg). After 5 minutes, aconitine solution (5 μg/ml) was delivered intravenously at a constant speed of 0.08 ml/min. The volume of aconitine solution is recorded when VP, VT and VF occur, and the electrocardiogram is also recorded. EV50 (VF) values are calculated by regression analysis on the basis of the dosage of aconitine consumed by VF in each experiment.

[4] = test system: acute liver injury induced by thioacetamide; assay: Model of acute liver injury induced by thioacetamide in mice; assay type: in vivo, Kunming mice; settings: thioacetamide 30 mg/kg, X ± SD, n = 20; for ALT / AST: blood 24 hours after final dose
Protocol: The model of acute liver injury induced by thioacetamide in mice Experimental animals: Kunming mice, male or female, weighing 19-22 g, are used in the study. Animals are housed in an animal room with a natural photoperiod and room temperature (23±2° C.), and maintained with free access to standard rodent pellet food and water ad libitum. […] All mice are randomly divided to 7 groups. […] Then all groups are successively dosed three times at an interval of 3 hours, 6 hours and 9 hours after being infected, and the blood samples were obtained at 24 hours (i.e. the next day) after the final dose. The follow markers and liver weight were measured and also the pathological examination were performed (Table 2).

[5] = test system: acute hepatic toxicity induced by carbon tetrachloride; assay: Model of acute hepatic toxicity induced by carbon tetrachloride in rats; assay type: in vivo; settings: blood 12 hours after final dose, X ± SD, n = 20
Protocol: 2. The Model of Acute Hepatic Toxicity Induced by Carbon Tetrachloride in Rats
Matured SD rats, male or female, weighing 250-350 g are used in the study. Animals are maintained with free access to standard rodent pellet food and water ad libitum.
All rats are randomly divided into 6 groups. All the other groups are treated with 0.5 ml/100 g of 50 percent carbon tetrachloride by hypodermic injection to induce acute hepatic toxicity model, except the control group, and are dosed one time simultaneously. Then all groups will be successively dosed at 4 hours and 8 hours, and the blood samples obtained at 12 hours after the final dose for determining ALT and AST. The animals are killed to measure their liver weight and to perform a pathological examination (Table 3).

[6] = cited from earlier work
bacteria = settings: cited from earlier work
[7] = test system: smooth muscles of the intestines; settings: cited from earlier work
gram-positive bacterium = settings: in vitro; cited from earlier work
[8] = normal mice; cited from earlier work
central nervous system = settings: in vivo; cited from earlier work

With `Nc1ccn([C@@H]2CS[C@H](CO)O2)c(=O)n1` [3TC, reference compound] the “Inhibition frequency to HBeAg (%)” value (HBeAg; concentration 1.0 μmol/ml) was 24.5% and the “Inhibition frequency to HBsAg (%)” value (HBsAg; concentration 1.0 μmol/ml) was 4.8%.
With `Cc1cn([C@H]2C[C@H](N=[N+]=[N-])[C@@H](CO)O2)c(=O)[nH]c1=O` [AZT, zidouvding, reference compound] the “IC50” value (HIV-1 III B) was 0.1 µg/mL (≈ 0.374 µM) and the “TC50” value (MT4 cells) was 500 µg/mL (≈ 1870 µM).
For `NC(=O)c1ncn([C@@H]2O[C@H](CO)[C@@H](O)[C@H]2O)n1` [Ribavirin, reference compound], the IC50 (influenza A1 virus) was 3.2 µM.
With `COc1cc2cc[n+]3cc4c5c(ccc4c(C)c3c2cc1O)OCO5` [dehydroapocavidine] the ALT [1] was 973.2 ± 273.5, the AST [1] was 1057.1 ± 338.7 and the “Hydroxy-prodine in Liver” value [1] was 0.175 ± 0.018. For the same compound, the “inhibitory effects on HIV viruses (in words)” value (HIV-1 III B) was “certain inhibitory effects on HIV viruses”, the “IC50” value (HIV-1 III B) was 6.25 µg/mL and the ALT [2] was 1027.10 ± 277.38. For the same compound, the AST [2] was 345.20 ± 68.29, the “Liver index (g liver wt./100 g body wt.)” value [2] was 4.47 ± 0.47 g liver wt./100 g body wt and the “inhibitory effects on influenza viruses (in words)” value (influenza A1 virus) was “markedly inhibitory effects on influenza viruses”. The Toxicity to cell (cell Hep G2 2.2.15; concentration 0.1 μmol/ml) was “− (“no obvious toxicity” means cell livability ≧75% using MTT method)”, the Toxicity to cell (cell Hep G2 2.2.15; concentration 0.2 μmol/ml) was “− (“no obvious toxicity” means cell livability ≧75% using MTT method)” and the Toxicity to cell (cell Hep G2 2.2.15; concentration 0.4 μmol/ml) was “− (“no obvious toxicity” means cell livability ≧75% using MTT method)”. The “preventive effects on arrhythmia induced by aconitine (in words)” value [3] was “certain preventive effects on arrhythmia induced by aconitine”, the “ED50 (10^−6 mol/Kg)” value ([3]; rats, vena femoralis injection, regression on aconitine dosage consumed by VF) was 4.26 10^−6 mol/Kg and the “Inhibition frequency to HBeAg (%)” value (HBeAg; concentration 0.1 μmol/ml) was 26.5%. The “Inhibition frequency to HBeAg (%)” value (HBeAg; concentration 0.2 μmol/ml) was 33.5%, the “Inhibition frequency to HBeAg (%)” value (HBeAg; concentration 0.4 μmol/ml) was 62.1% and the “Inhibition frequency to HBsAg (%)” value (HBsAg; concentration 0.1 μmol/ml) was 15.7%. The “Inhibition frequency to HBsAg (%)” value (HBsAg; concentration 0.2 μmol/ml) was 21.3%, the “Inhibition frequency to HBsAg (%)” value (HBsAg; concentration 0.4 μmol/ml) was 28.6% and the “Liver index (g liver wt./100 g body wt.)” value [4] was 5.14 ± 0.48 g liver wt./100 g body wt. The ALT [4] was 823.26 ± 178.42, the AST [4] was 241.13 ± 62.81 and the “TC50” value (MT4 cells) was 250 µg/mL. It also gave an ALT [5] of 955.36 ± 327.18 and an AST [5] of 903.52 ± 256.94.
For `COc1cc2c(cc1OC)-c1c(C)c3ccc4c(c3c[n+]1CC2)OCO4` [dehydrocavidine], the “production of glycogen in vivo” value [6] is listed as “effect on increasing the production of glycogen in vivo”, the ALT [1] is listed as 1113.4 ± 247.6 and the AST [1] is listed as 987.3 ± 237.9. The “Hydroxy-prodine in Liver” value [1] was 0.162 ± 0.013, the “inhibitory effects on HIV viruses (in words)” value (HIV-1 III B) was “certain inhibitory effects on HIV viruses” and the IC50 (HIV-1 III B; Human immunodeficiency virus 1, read-out: IC50) was 12.5 µg/mL. The ALT [2] was 846.28 ± 172.54, the AST [2] was 241.20 ± 65.53 and the “Liver index (g liver wt./100 g body wt.)” value [2] was 5.10 ± 0.36 g liver wt./100 g body wt. The “antibacterial effect in vitro” value (bacteria) was “antibacterial effect in vitro”, the “inhibitory effects on influenza viruses (in words)” value (influenza A1 virus) was “markedly inhibitory effects on influenza viruses” and the IC50 (influenza A1 virus) was 7.4 µM. The “effects on the smooth muscles of the intestines” value [7] was “antispasm effects on the smooth muscles of the intestines”, the “inhibitory effect on gram-positive bacterium” value (gram-positive bacterium) was “certain inhibitory effect on gram-positive bacterium” and the Toxicity to cell (cell Hep G2 2.2.15; concentration 0.1 μmol/ml) was “− (“no obvious toxicity” means cell livability ≧75% using MTT method)”. For the same compound, the Toxicity to cell (cell Hep G2 2.2.15; concentration 0.2 μmol/ml) was “− (“no obvious toxicity” means cell livability ≧75% using MTT method)”, the Toxicity to cell (cell Hep G2 2.2.15; concentration 0.4 μmol/ml) was “− (“no obvious toxicity” means cell livability ≧75% using MTT method)” and the ED50 ([3]; Rattus norvegicus, read-out: ED50 (10^−6 mol/Kg)) was 7.33 µmol/kg. For the same compound, the “preventive effects on arrhythmia induced by aconitine (in words)” value [3] was “certain preventive effects on arrhythmia induced by aconitine”, the “effects on blood sugar levels” value [8] was “no effects on the blood sugar levels in normal mice” and the “Inhibition frequency to HBeAg (%)” value (HBeAg; concentration 0.1 μmol/ml) was 20.5%. The “Inhibition frequency to HBeAg (%)” value (HBeAg; concentration 0.2 μmol/ml) was 21.6%, the “Inhibition frequency to HBeAg (%)” value (HBeAg; concentration 0.4 μmol/ml) was 57.2% and the “Inhibition frequency to HBsAg (%)” value (HBsAg; concentration 0.1 μmol/ml) was 28.4%. The “Inhibition frequency to HBsAg (%)” value (HBsAg; concentration 0.2 μmol/ml) was 31.4%, the “Inhibition frequency to HBsAg (%)” value (HBsAg; concentration 0.4 μmol/ml) was 34.6% and the “Liver index (g liver wt./100 g body wt.)” value [4] was 5.36 ± 0.54 g liver wt./100 g body wt. The ALT [4] was 873.50 ± 251.82, the AST [4] was 237.10 ± 73.27 and the “TC50” value (MT4 cells) was >1000 µg/mL. The ALT [5] was 774.30 ± 217.11, the AST [5] was 1116.54 ± 348.27 and the “effects on the central nervous system” value (central nervous system) was “sedative effects on the central nervous system”.
